Data set [1] deals with T1, human MMP-9 (gelatinase B) (Homo sapiens, UniProt P14780).
T1 construct: endogenous in cells; host or cells: HT1080 human fibrosarcoma cells (ATCC CCL-121), PMA-stimulated; enzyme purified from the culture supernatant
The data set is described as follows: Inhibition activity against human MMP-9 (gelatinase B), fluorescent peptide substrate. The data set is classed as biochemical. As for the experimental part: Human MMP-9 (gelatinase B) was purified by the following method from a culture supernatant of HT1080 cells (human fibrosarcoma).
2.5×10^6 HT1080 cells (ATCC CCL-121, purchased from Dainippon Seiyaku) were inoculated to a tissue culture dish (Code No. 3020-100, manufactured by Iwaki Glass Co., Ltd.) having a diameter of 10 cm and containing 10 ml of Dulbecco's Modified Eagle Medium (DME, No. D-5648, manufactured by Sigma Co.) containing 10% fetal bovine serum (FBS: REHATUIN™, Code No. 1020-90, manufactured by Intergen Co.) and cultured for 72 hours at 37° C. in an atmosphere comprising 5% of CO2 and 95% of air (Carbon Dioxide Incubator LNA-122D Model, manufactured by Tabai Co.). Then, the medium was changed to 10 ml of a DME culture medium containing no FBS, and phorbol 12-myristate 13-acetate (PMA, code No. 163-114851, manufactured by Wako Pure Chemical Industries, Ltd.) was added so that the final concentration became 10 ng/ml. Under the same conditions, the culturing was carried out for further 20 hours, whereupon the culture supernatant was collected and subjected to cool centrifugation at 4° C. for 5 minutes (cool centrifugal separator, manufactured by Hitachi) to remove cell fragments.
The pH of a conditioned medium (50 ml) containing MMP-9, thus prepared, was adjusted to 8.0 with 0.2N NaOH. […] Namely, the above-mentioned conditioned medium was passed through DEAE-Sephacel (manufactured by Pharmacia, gel volume: about 35 ml) preliminarily equilibrated with 50 mM Tris-HCl, pH 8.0 (A buffer), and a non-adsorption fraction was collected. Then, it was added to Dye Matrix Gel Green A (manufactured by Amicon Co., gel volume: about 6 ml) preliminarily equilibrated with 50 mM Tris-HCl, pH 7.5/10 MM CaCl2/0.05% Brij 35/0.02% NaN3 (B buffer) and thoroughly washed with the same buffer, whereupon the adsorbed enzyme was eluted with a 1M NaCl-containing B buffer. About 7.5 ml of the eluted fraction was diluted twice with the B buffer and added to Gelatin-Sepharose 4B (manufactured by Pharmacia, gel volume: about 6 ml) preliminarily equilibrated with a 0.5 M NaCl-containing B buffer. It was thoroughly washed with a 0.5M NaCl-containing B buffer, and eluted with the B buffer containing 10% of dimethylsulfoxide (DMSO) and 0.5 M of NaCl. 5.5 ml of the eluted fraction was dialyzed against a 0.1 M NaCl-containing B buffer to obtain 5.2 ml of a purified enzyme solution. The purified MMP-9 standard product was confirmed to have a single band of 92 kDa by a protein staining by SDS electrophoresis, and further, it was confirmed to have an adequate gelatin decomposing activity by gelatinzymography (carried out in accordance with a method by Howard E. W. et al; Journal Biological Chemistry, Vol. 266, 13064-13069, 1991) and to have an adequate substrate decomposing activity by the after-mentioned measurement employing a fluorescent peptide substrate specific to MMP.
The inhibition activity against human MMP-9 was measured by the following method in accordance with the method by C. G. Knight et al (FEBS Letters, Vol, 296, 263-266, 1992) employing a fluorescent peptide substrate (7-methoxycoumarin-4-yl)Acetyl-Pro-Leu-Gly-Leu-(3-[2,4-dinitrophenyl]—Ala—Arg-NH2, Code 3163-VC, manufactured by Peptide Institute, Inc.
Further, as the case requires, commercially available human MMP-9 purified enzyme (No. YU-18003, manufactured by Kabushiki Kaisha Yagai Chuo Kenkyusho; used in a final concentration of from 0.0125 to 0.025 unit/ml, No. CC079, manufactured by Chemicon International, Inc.; used in a final concentration of 0.2 μg/ml) was used for the tests. […]

Where [2] appears, read: compounds of the formula (I), 1st measurement, read-out: MMP-9 inhibition activities IC50, 1st.
The mark [3] stands for this setting: compounds of the formula (I), 2nd measurement, read-out: MMP-9 inhibition activities IC50, 2nd.
Setting [4] is: compounds of the formula (I), average of 1st and 2nd (or single measurement), read-out: MMP-9 inhibition activities IC50, Average.

Read-outs that look alike come from different tables or passages of the source.

T1 sequence (P14780 107-707 limits assumed): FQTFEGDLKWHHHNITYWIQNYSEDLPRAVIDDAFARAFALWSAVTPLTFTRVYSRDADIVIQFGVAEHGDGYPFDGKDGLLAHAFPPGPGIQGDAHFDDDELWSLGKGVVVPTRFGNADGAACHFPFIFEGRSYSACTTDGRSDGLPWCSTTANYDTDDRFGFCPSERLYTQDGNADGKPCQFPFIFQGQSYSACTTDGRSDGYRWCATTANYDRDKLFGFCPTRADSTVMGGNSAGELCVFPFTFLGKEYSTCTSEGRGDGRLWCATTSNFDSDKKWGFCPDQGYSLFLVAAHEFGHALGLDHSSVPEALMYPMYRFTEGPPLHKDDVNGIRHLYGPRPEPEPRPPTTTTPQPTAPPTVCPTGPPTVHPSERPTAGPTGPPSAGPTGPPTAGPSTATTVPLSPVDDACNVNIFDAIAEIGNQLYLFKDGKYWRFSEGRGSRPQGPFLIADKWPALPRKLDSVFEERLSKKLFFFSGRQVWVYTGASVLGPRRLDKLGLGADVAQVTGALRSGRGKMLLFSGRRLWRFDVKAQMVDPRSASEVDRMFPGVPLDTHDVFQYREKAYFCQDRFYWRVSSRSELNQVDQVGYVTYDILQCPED

`CNC(=C[N+](=O)[O-])NN=Cc1ccc(C(=O)O)cc1` [compound 142]: the melting point (as a rule, the temperature, or range, at which the solid turns liquid) was 210 °C (dec.). In data set [1] (setting [2]), the IC50 – broadly, the midpoint of a concentration-inhibition curve – was found to be 20.4 µM. Further, the IC50 in data set [1] (setting [3]) worked out at 22.4 µM. Further, the IC50 in data set [1] (setting [4]) stood at 21.4 µM.
On to `CNC(=C[N+](=O)[O-])NN=Cc1ccc2c(c1)OCCO2` [compound 141], for which the melting point was 179 °C (dec.). The IC50 in data set [1] (setting [2]) was 19.9 µM. In addition, the IC50 in data set [1] (setting [3]) was 18.1 µM. For the same compound, in data set [1] (setting [4]), the IC50 was 19 µM.
For `CCOCCCOc1cc(C(F)(F)F)cc(NNC(=C[N+](=O)[O-])NC)n1` [compound 197] the same measures were 147 °C, 10.3 µM, 10.9 µM and 10.6 µM.
Take `NNC(=C[N+](=O)[O-])Nc1ccc(O)cc1` [compound 76]: the melting point was 190 °C (dec.). The IC50 in data set [1] (setting [2]) amounted to 34 µM. Also, the 50% inhibitory concentration (IC50) in data set [1] (setting [3]) is 33.8 µM. In addition, in data set [1] (setting [4]), the IC50 was determined as 33.9 µM.
`CCS(=O)(=O)NC(=C[N+](=O)[O-])NNc1cc(C(F)(F)F)cc(Cl)n1` [compound 161]: the melting point was 114 to 119 °C (dec.). For the same compound, the IC50 in data set [1] (setting [2]) worked out at 6 µM. Further, in data set [1] (setting [4]), the concentration for half-maximal inhibition (IC50) came out at 6 µM.
For `CNC(=C[N+](=O)[O-])NNc1ccccn1` [compound 22], the melting point is 156 °C (dec.). Also, the IC50 in data set [1] (setting [2]) was determined as 17.9 µM. Further, in data set [1] (setting [3]), the IC50 was 17.4 µM. In addition, the IC50 in data set [1] (setting [4]) came out at 17.7 µM.
Turning to `CSC(=C[N+](=O)[O-])Nc1ccc(O)cc1` [Intermediate 12], the melting point is 193 °C (dec.). In addition, in data set [1] (intermediates, compounds of the formula (IV), 1st measurement, read-out: MMP-9 inhibition activities IC50, 1st), the IC50 came to 25.3 µM. Also, the IC50 in data set [1] (intermediates, compounds of the formula (IV), 2nd measurement, read-out: MMP-9 inhibition activities IC50, 2nd) is 24.5 µM. Moreover, in data set [1] (intermediates, compounds of the formula (IV), average of 1st and 2nd (or single measurement), read-out: MMP-9 inhibition activities IC50, Average), the IC50 came to 24.9 µM.
The compound `CNC(=C[N+](=O)[O-])NNc1cc(C(F)(F)F)cc(OCCSC)n1` [compound 189] gave a melting point of 94 °C. In addition, in data set [1] (setting [2]), the IC50 amounted to 11.1 µM. For the same compound, the IC50 in data set [1] (setting [4]) was determined as 11.1 µM.
Turning to `CNC(=C[N+](=O)[O-])NN=C(C)c1ccccn1` [compound 33], the melting point is 170 °C (dec.). In addition, the IC50 in data set [1] (setting [2]) came out at 30.6 µM. Further, the IC50 in data set [1] (setting [3]) came to 31.9 µM. The IC50 in data set [1] (setting [4]) came out at 31.8 µM.
Take `CNC(=C[N+](=O)[O-])NNc1nc2ccccc2s1` [compound 132]: the melting point is 158 °C (dec.). Further, in data set [1] (setting [2]), the IC50 was 1.2 µM. In addition, the IC50 in data set [1] (setting [3]) is 2.4 µM. Moreover, the IC50 in data set [1] (setting [4]) came to 1.8 µM.
With `NNC(=C[N+](=O)[O-])NCc1ccccc1` [compound 92], the melting point lay within 140 to 143 °C. Further, in data set [1] (setting [2]), the IC50 was determined as 15.4 µM. For the same compound, in data set [1] (setting [3]), the IC50 amounted to 20.6 µM. Besides, the IC50 in data set [1] (setting [4]) was found to be 18 µM.
As to `CNC(=C[N+](=O)[O-])NNc1cc(C(F)(F)F)cc(OCCSc2ccccc2)n1` [compound 195], the melting point is 170 °C (dec.). Also, in data set [1] (setting [2]), the IC50 was 11.6 µM. For the same compound, the IC50 in data set [1] (setting [4]) turned out to be 11.6 µM.
On to `COc1ccc(NC(=C[N+](=O)[O-])NN)cn1` [compound 115], for which the melting point lay within 162 to 165 °C. Further, the IC50 in data set [1] (setting [2]) was found to be 31.8 µM. Moreover, the IC50 in data set [1] (setting [3]) was determined as 26.5 µM. In data set [1] (setting [4]), the IC50 came to 29.2 µM.
`CNC(=C[N+](=O)[O-])NNc1ccnc2cc(Cl)ccc12` [compound 146]: the melting point was 210 °C (dec.). Also, in data set [1] (setting [2]), the IC50 amounted to 18.4 µM. Also, the IC50 in data set [1] (setting [3]) worked out at 29.4 µM. Besides, the IC50 in data set [1] (setting [4]) came out at 23.9 µM.
For `NC(=C[N+](=O)[O-])NNc1cc(C(F)(F)F)cc(Cl)n1` [compound 103], the melting point was 201 to 202 °C (dec.). Also, the IC50 in data set [1] (setting [2]) amounted to 8.9 µM. Also, in data set [1] (setting [3]), the IC50 was found to be 10.7 µM. Further, the IC50 in data set [1] (setting [4]) came to 9.8 µM.
As for `C=C1C(C)=NN/C(=C\[N+](=O)[O-])N1c1ccccc1` [compound 155], the IC50 was determined as 24.3 µM in data set [1] (setting [2]), 43.5 µM in data set [1] (setting [3]) and 33.9 µM in data set [1] (setting [4]).
The matching figures for `NNC(=C[N+](=O)[O-])Nc1ccc(Cl)cc1` [compound 51]: 27.3 µM, 32.1 µM and 29.7 µM.

For the origin of these results see patent publication US6596863B2, “Medical composition containing nitroetheneamine Derivative or salt there of as active constituent” (Ishihara Sangyo Kaisha, Ltd., priority 1998, dated 2003).
